Measured values reported in paper PMC3345088 (Journal of Immunology (Baltimore, Md. : 1950), 2012).

Test system: purified HLA class II DR, DP and DQ molecules
Assay: MHC-peptide binding assays
Parameters: species or system human
Conditions: allele as in inferred restricting HLA allele column

Substance	Binding to the allelic variant shared by all responders
CFP10 52–66: 15-mer peptide epitope, residues 52–66 of CFP10 (Rv3874)	high affinity
ESAT-6 73–87: 15-mer peptide epitope, residues 73–87 of ESAT-6 (Rv3875) (ARTISEAGQAMASTE; UniProt P9WNK7 73-87, looked up, fragment)	high affinity
